Assay results as given in ChEMBL document CHEMBL5360657, “Discovery of the TLR7/8 Antagonist MHV370 for Treatment of Systemic Autoimmune Diseases” (ACS Med Chem Lett, 2023).

Key:
Toll-like receptor 8 = biological target: T1, Toll-like receptor 8 (Homo sapiens, UniProt Q9NR97); assay: Antagonist activity at TLR8 in human PBMC cells […] assessed as reduction in IL-6 level measured after 20 hrs by AlphaLISA assay; type: cell-based
T1 sequence (Q9NR97 whole entry): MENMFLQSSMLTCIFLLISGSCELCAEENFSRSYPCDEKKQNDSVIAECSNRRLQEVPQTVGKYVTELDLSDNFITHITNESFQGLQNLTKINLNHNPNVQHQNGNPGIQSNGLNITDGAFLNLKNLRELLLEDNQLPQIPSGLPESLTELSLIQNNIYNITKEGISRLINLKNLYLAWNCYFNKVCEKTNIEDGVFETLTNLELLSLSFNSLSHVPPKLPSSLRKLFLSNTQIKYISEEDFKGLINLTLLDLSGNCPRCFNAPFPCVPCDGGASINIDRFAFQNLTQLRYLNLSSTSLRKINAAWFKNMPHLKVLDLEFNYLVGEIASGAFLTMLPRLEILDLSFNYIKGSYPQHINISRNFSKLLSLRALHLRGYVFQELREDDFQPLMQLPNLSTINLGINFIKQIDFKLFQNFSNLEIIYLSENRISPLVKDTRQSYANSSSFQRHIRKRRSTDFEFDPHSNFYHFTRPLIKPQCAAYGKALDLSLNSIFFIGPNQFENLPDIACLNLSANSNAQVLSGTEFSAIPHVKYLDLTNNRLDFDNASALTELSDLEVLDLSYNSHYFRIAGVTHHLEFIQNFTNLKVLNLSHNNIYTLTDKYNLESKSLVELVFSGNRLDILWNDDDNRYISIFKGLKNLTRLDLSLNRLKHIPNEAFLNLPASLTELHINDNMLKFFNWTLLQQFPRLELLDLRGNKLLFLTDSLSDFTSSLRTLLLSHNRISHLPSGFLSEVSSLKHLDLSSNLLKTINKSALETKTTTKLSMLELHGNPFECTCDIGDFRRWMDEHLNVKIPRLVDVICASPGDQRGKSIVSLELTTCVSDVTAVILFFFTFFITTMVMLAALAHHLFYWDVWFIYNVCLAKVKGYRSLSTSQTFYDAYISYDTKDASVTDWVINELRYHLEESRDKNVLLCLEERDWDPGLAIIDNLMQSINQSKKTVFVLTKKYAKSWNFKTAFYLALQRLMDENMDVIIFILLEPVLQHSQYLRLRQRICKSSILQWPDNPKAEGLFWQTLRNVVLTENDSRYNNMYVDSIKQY

Toll-like receptor 9 = biological target: T2, Toll-like receptor 9 (Homo sapiens, UniProt Q9NR96); assay: Antagonist activity at TLR9 in human PBMC cells assessed as reduction in IFN alpha measured after 20 hrs by AlphaLISA assay; type: cell-based
T2 sequence (Q9NR96 whole entry): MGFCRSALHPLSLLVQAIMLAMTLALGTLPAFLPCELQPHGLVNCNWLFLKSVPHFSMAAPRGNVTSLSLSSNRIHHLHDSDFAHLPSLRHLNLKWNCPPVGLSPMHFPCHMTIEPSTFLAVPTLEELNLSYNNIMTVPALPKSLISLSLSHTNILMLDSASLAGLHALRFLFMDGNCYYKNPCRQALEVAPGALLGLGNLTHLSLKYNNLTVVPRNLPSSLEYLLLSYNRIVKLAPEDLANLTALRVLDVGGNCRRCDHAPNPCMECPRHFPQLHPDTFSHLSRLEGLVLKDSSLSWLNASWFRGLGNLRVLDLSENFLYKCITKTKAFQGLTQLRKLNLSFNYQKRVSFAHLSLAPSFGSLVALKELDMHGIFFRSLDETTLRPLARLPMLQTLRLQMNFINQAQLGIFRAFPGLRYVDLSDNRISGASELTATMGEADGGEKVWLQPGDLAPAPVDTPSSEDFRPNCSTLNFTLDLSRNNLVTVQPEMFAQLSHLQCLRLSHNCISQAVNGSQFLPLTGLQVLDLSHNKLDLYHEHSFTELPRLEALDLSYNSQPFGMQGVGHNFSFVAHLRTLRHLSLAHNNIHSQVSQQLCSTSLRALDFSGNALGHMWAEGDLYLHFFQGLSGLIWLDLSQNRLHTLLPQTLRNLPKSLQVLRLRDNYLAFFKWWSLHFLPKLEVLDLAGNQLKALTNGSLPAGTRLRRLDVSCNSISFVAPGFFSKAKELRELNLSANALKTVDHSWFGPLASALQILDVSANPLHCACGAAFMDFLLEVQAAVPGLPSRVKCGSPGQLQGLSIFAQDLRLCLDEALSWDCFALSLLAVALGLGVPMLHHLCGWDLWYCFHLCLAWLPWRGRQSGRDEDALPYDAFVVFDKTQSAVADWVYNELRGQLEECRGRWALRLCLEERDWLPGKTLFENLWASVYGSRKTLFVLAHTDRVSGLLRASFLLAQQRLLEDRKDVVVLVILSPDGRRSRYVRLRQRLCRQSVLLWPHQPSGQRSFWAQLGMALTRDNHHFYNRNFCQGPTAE

[1] = Permeability of the compound by PAMPA; type: ADME
[2] = Solubility of the compound; type: physicochemical
[3] = biological target: Voltage-gated inwardly rectifying potassium channel KCNH2 (Homo sapiens, UniProt Q12809); assay: Displacement of [3H]-dofetilite from human ERG (unknown origin); type: toxicity
Chain of Voltage-gated inwardly rectifying potassium channel KCNH2 (Q12809 whole entry): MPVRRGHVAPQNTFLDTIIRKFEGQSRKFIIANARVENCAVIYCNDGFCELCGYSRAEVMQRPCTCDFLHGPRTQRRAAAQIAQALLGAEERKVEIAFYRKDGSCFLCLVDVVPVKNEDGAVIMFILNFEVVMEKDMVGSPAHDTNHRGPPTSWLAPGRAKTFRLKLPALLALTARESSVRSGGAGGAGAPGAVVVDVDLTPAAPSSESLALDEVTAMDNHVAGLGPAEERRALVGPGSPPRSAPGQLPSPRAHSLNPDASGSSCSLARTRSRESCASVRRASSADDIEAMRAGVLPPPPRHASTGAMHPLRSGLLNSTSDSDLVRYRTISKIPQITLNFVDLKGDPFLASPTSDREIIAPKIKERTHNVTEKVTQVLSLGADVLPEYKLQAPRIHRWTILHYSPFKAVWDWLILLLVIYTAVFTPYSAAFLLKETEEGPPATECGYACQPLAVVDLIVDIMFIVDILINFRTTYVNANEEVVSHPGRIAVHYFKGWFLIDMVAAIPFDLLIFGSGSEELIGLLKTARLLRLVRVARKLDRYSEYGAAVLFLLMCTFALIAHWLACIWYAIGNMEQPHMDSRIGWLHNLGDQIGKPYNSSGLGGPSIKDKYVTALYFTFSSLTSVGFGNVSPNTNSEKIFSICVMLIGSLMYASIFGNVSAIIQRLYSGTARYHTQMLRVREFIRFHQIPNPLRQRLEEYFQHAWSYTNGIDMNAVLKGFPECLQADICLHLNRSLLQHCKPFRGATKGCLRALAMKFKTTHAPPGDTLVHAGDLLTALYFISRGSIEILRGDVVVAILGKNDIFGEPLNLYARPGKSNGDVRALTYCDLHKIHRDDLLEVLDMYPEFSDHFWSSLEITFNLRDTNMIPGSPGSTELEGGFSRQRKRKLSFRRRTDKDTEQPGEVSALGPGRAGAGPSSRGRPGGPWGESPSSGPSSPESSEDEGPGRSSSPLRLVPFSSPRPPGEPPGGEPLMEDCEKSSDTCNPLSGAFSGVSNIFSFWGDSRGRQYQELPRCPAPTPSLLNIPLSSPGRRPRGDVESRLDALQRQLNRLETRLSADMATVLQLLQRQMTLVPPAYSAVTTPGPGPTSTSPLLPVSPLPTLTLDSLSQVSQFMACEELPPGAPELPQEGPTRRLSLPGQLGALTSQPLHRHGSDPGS

Cytochrome P450 3A4 [4] = biological target: T3, Cytochrome P450 3A4 (Homo sapiens, UniProt P08684); assay: Inhibition of CYP3A4 (unknown origin); type: ADME
T3 sequence (P08684 whole entry): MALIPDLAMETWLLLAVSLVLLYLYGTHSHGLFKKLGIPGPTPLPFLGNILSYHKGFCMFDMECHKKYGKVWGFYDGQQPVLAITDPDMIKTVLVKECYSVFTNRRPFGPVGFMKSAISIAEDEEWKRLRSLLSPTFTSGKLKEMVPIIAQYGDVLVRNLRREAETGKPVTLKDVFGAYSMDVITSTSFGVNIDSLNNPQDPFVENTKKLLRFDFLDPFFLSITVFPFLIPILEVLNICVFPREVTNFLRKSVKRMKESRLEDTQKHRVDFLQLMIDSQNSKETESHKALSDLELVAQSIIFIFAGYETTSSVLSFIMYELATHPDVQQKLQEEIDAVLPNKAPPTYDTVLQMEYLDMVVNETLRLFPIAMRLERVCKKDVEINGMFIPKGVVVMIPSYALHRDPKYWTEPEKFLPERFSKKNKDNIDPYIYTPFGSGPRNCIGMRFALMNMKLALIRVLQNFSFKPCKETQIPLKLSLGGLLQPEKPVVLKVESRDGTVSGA

Cytochrome P450 3A4 [5] = biological target: T3, Cytochrome P450 3A4; assay: Time dependent inhibition of CYP3A4 (unknown origin) assessed as Kobs; type: ADME
[6] = Metabolic stability in human liver microsomes assessed as intrinsic clearance; type: ADME, Microsome; details: read-out: CLH
[7] = Metabolic stability in rat liver microsomes assessed as intrinsic clearance; type: ADME, Microsome; details: read-out: CLH
Toll-like receptor 7 = biological target: T4, Toll-like receptor 7 (Homo sapiens, UniProt Q9NYK1); assay: Antagonist activity at TLR7 in human PBMC cells assessed as reduction in IFN alpha measured after 20 hrs by AlphaLISA assay; type: cell-based
T4 sequence (Q9NYK1 whole entry): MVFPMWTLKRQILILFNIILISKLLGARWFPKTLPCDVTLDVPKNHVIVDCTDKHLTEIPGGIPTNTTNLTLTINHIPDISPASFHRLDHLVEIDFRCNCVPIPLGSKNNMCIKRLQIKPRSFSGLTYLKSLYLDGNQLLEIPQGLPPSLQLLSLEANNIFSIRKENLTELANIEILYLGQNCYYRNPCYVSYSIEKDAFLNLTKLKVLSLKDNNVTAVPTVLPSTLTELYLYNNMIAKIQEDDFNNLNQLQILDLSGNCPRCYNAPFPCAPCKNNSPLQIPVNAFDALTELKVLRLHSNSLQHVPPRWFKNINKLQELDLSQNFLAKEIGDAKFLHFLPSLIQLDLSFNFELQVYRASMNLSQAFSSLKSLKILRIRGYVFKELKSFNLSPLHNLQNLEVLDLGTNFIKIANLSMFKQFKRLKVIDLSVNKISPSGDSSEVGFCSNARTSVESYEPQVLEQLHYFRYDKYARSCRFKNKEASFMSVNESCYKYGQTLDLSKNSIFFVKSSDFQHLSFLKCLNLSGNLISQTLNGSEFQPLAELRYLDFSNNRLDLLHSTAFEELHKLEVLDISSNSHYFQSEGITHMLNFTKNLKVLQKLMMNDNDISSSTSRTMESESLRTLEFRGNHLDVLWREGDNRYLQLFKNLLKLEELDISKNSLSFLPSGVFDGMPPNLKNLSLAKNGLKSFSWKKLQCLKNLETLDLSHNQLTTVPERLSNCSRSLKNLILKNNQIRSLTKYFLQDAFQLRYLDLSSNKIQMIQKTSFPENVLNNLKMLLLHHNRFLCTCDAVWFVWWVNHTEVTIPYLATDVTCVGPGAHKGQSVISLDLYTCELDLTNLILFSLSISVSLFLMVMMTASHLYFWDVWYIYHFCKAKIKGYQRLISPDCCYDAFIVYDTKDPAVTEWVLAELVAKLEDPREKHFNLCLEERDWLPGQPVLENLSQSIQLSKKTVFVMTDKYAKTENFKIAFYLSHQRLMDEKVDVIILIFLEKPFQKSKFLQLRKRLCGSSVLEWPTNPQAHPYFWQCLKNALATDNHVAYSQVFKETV

[8] = Metabolic stability in mouse liver microsomes assessed as intrinsic clearance; type: ADME, Microsome; details: read-out: CLH

| Compound | IC50 (Toll-like receptor 8) [µM] | IC50 (Toll-like receptor 9) [µM] | log(permeability) [1] | solubility [2] [µM] | IC50 [3] [µM] | IC50 (Cytochrome P450 3A4 [4]) [µM] | Kobs (Cytochrome P450 3A4 [5]) [min⁻¹] | microsomal CLint [6] [µL/min/mg] | microsomal CLint [7] [µL/min/mg] | IC50 (Toll-like receptor 7) [µM] | microsomal CLint [8] [µL/min/mg] |
| --- | --- | --- | --- | --- | --- | --- | --- | --- | --- | --- | --- |
| CC(=O)NC12CCC(Cn3nc(C)c4c3CCN(c3cc(C)nc5c3cnn5C)C4)(CC1)CC2 | > 10 | 5.2 | -4.6 | > 175 | > 30 | 24 | 0.022 | 63 | 45 | – | – |
| Cc1cc(N2CCc3c(c(C)nn3CC34CCC(NCC(=O)N(C)C)(CC3)CC4)C2)c2cnn(C)c2n1 | 0.19 | 3 | -5.4 | – | – | – | – | 31 | 29 | 0.041 | < 15 |
| CN[C@H](C)C(=O)NC12CCC(Cn3nc(C)c4c3CCN(c3cc(C)nc5c3cnn5C)C4)(CC1)CC2 | 0.19 | 0.78 | -5.3 | – | > 30 | > 50 | 0.023 | < 15 | < 15 | – | 120 |
| Cc1cc(N2CCc3c(c(C)nn3CC34CCC(NC(=O)CN5CCCC5)(CC3)CC4)C2)c2cnn(C)c2n1 | – | 1.2 | -4.1 | – | – | – | – | 329 | < 15 | 0.004 | 531 |
| Cc1cc(N2CCc3c(c(C)nn3CC34CCC(NC5CCC5)(CC3)CC4)C2)c2cnn(C)c2n1 | 0.071 | 0.55 | -4.2 | > 175 | 25 | 28 | 0.037 | 52 | 28 | – | 77 |
| Cc1cc(N2CCc3c(c(C)nn3CC34CCC(NC(=O)[C@@H]5CNCCO5)(CC3)CC4)C2)c2cnn(C)c2n1 | 0.067 | 0.19 | -5.2 | – | – | 5.5 | – | 135 | 24 | 0.002 | 93 |
| Cc1cc(N2CCc3c(c(C)nn3CC34CCC(NCC(F)F)(CC3)CC4)C2)c2cnn(C)c2n1 | 0.14 | – | -3.7 | > 175 | > 30 | 8.6 | 0.011 | 423 | 656 | – | – |
